Test results: the supplement of paper PMC10307832

Tests used:
Test in all cases: relative viability (nuclei count vs DMSO), 5 days (fraction); higher = more cells survive
[1] = test system: BEN
Outline: (§1)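 Lung cancer cell lines, seeded in 1536-well plates, were treated the following day by pin tool with a single drug or with five library-drug doses (not always all listed) in √10 steps on top of a fixed anchor-drug dose. Cells were fixed and nuclei stained in one step after 5 days, and nuclei were counted. Relative viability is the nuclei count for treated wells divided by that for vehicle wells, reported as medians of duplicate plates.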

[2] = test system: EKVX
Outline: as §1

[3] = test system: HARA
Outline: as §1

[4] = test system: HCC-366
Outline: as §1

[5] = test system: HCC-827
Outline: as §1

[6] = test system: LOU-NH91
Outline: as §1

[7] = test system: NCI-H1355
Outline: as §1

[8] = test system: NCI-H1395
Outline: as §1

[9] = test system: NCI-H1437
Outline: as §1

[10] = test system: NCI-H1734
Outline: as §1

[11] = test system: NCI-H1792
Outline: as §1

[12] = test system: NCI-H1993
Outline: as §1

[13] = test system: NCI-H2009
Outline: as §1

[14] = test system: NCI-H2087
Outline: as §1

[15] = test system: NCI-H2170
Outline: as §1

[16] = test system: NCI-H2342
Outline: as §1

[17] = test system: NCI-H2405
Outline: as §1

[18] = test system: NCI-H522
Outline: as §1

[19] = test system: NCI-H647
Outline: as §1

[20] = test system: NCI-H661
Outline: as §1

[21] = test system: SK-LU-1
Outline: as §1

[22] = test system: SK-MES-1
Outline: as §1

Compound: O=c1cc(-c2cccc3c2Sc2ccccc2S3)oc(N2CCOCC2)c1 + O=C(c1cc(Cc2n[nH]c(=O)c3ccccc23)ccc1F)N1CCN(C(=O)C2CC2)CC1 [Olaparib] (partner 8 µM)
- relative viability ([1]; first compound 0.08 µM): 0.998
- relative viability ([1]; first compound 0.253 µM): 1.15
- relative viability ([1]; first compound 0.8 µM): 1.04
- relative viability ([1]; first compound 2.53 µM): 0.956
- relative viability ([1]; first compound 8 µM): 1.07
- relative viability ([2]; first compound 0.08 µM): 0.829
- relative viability ([2]; first compound 0.253 µM): 0.852
- relative viability ([2]; first compound 0.8 µM): 0.623
- relative viability ([2]; first compound 2.53 µM): 0.803
- relative viability ([2]; first compound 8 µM): 1.05
- relative viability ([3]; first compound 0.08 µM): 1.13
- relative viability ([3]; first compound 0.253 µM): 0.711
- relative viability ([3]; first compound 0.8 µM): 0.774
- relative viability ([3]; first compound 2.53 µM): 0.629
- relative viability ([3]; first compound 8 µM): 0.777
- relative viability ([4]; first compound 0.08 µM): 0.421
- relative viability ([4]; first compound 0.253 µM): 0.507
- relative viability ([4]; first compound 0.8 µM): 0.406
- relative viability ([4]; first compound 2.53 µM): 0.483
- relative viability ([4]; first compound 8 µM): 0.357
- relative viability ([5]; first compound 0.08 µM): 0.621
- relative viability ([5]; first compound 0.253 µM): 0.716
- relative viability ([5]; first compound 0.8 µM): 0.677
- relative viability ([5]; first compound 2.53 µM): 0.588
- relative viability ([5]; first compound 8 µM): 0.768
- relative viability ([6]; first compound 0.08 µM): 0.875
- relative viability ([6]; first compound 0.253 µM): 0.945
- relative viability ([6]; first compound 0.8 µM): 0.866
- relative viability ([6]; first compound 2.53 µM): 0.863
- relative viability ([6]; first compound 8 µM): 0.917
- relative viability ([7]; first compound 0.08 µM): 0.801
- relative viability ([7]; first compound 0.253 µM): 0.916
- relative viability ([7]; first compound 0.8 µM): 0.65
- relative viability ([7]; first compound 2.53 µM): 0.717
- relative viability ([7]; first compound 8 µM): 0.573
- relative viability ([8]; first compound 0.08 µM): 0.404
- relative viability ([8]; first compound 0.253 µM): 0.416
- relative viability ([8]; first compound 0.8 µM): 0.513
- relative viability ([8]; first compound 2.53 µM): 0.471
- relative viability ([8]; first compound 8 µM): 0.47
- relative viability ([9]; first compound 0.08 µM): 0.618
- relative viability ([9]; first compound 0.253 µM): 0.785
- relative viability ([9]; first compound 0.8 µM): 0.684
- relative viability ([9]; first compound 2.53 µM): 0.615
- relative viability ([9]; first compound 8 µM): 0.541
- relative viability ([10]; first compound 0.08 µM): 0.628
- relative viability ([10]; first compound 0.253 µM): 0.659
- relative viability ([10]; first compound 0.8 µM): 0.713
- relative viability ([10]; first compound 8 µM): 0.647
- relative viability ([11]; first compound 0.08 µM): 0.384
- relative viability ([11]; first compound 0.253 µM): 0.352
- relative viability ([11]; first compound 0.8 µM): 0.341
- relative viability ([11]; first compound 2.53 µM): 0.321
- relative viability ([11]; first compound 8 µM): 0.286
- relative viability ([12]; first compound 0.08 µM): 1.05
- relative viability ([12]; first compound 0.253 µM): 1.1
- relative viability ([12]; first compound 0.8 µM): 0.986
- relative viability ([12]; first compound 2.53 µM): 0.965
- relative viability ([12]; first compound 8 µM): 1.12
- relative viability ([13]; first compound 0.08 µM): 0.746
- relative viability ([13]; first compound 0.253 µM): 0.731
- relative viability ([13]; first compound 0.8 µM): 0.798
- relative viability ([13]; first compound 2.53 µM): 0.662
- relative viability ([13]; first compound 8 µM): 0.765
- relative viability ([14]; first compound 0.08 µM): 0.604
- relative viability ([14]; first compound 0.253 µM): 0.605
- relative viability ([14]; first compound 0.8 µM): 0.682
- relative viability ([14]; first compound 2.53 µM): 0.638
- relative viability ([14]; first compound 8 µM): 0.561
- relative viability ([15]; first compound 0.08 µM): 0.585
- relative viability ([15]; first compound 0.253 µM): 0.699
- relative viability ([15]; first compound 0.8 µM): 0.689
- relative viability ([15]; first compound 2.53 µM): 0.641
- relative viability ([15]; first compound 8 µM): 0.617
- relative viability ([16]; first compound 0.08 µM): 0.52
- relative viability ([16]; first compound 0.253 µM): 0.419
- relative viability ([16]; first compound 0.8 µM): 0.476
- relative viability ([16]; first compound 2.53 µM): 0.471
- relative viability ([16]; first compound 8 µM): 0.423
- relative viability ([17]; first compound 0.08 µM): 0.861
- relative viability ([17]; first compound 0.253 µM): 1.04
- relative viability ([17]; first compound 0.8 µM): 0.791
- relative viability ([17]; first compound 2.53 µM): 0.8
- relative viability ([17]; first compound 8 µM): 0.936
- relative viability ([18]; first compound 0.08 µM): 0.615
- relative viability ([18]; first compound 0.253 µM): 0.621
- relative viability ([18]; first compound 0.8 µM): 0.612
- relative viability ([18]; first compound 2.53 µM): 0.723
- relative viability ([18]; first compound 8 µM): 0.576
- relative viability ([19]; first compound 0.08 µM): 0.642
- relative viability ([19]; first compound 0.253 µM): 0.851
- relative viability ([19]; first compound 0.8 µM): 0.596
- relative viability ([19]; first compound 2.53 µM): 0.452
- relative viability ([19]; first compound 8 µM): 0.272
- relative viability ([20]; first compound 0.08 µM): 0.809
- relative viability ([20]; first compound 0.253 µM): 0.808
- relative viability ([20]; first compound 0.8 µM): 0.76
- relative viability ([20]; first compound 2.53 µM): 0.777
- relative viability ([20]; first compound 8 µM): 0.712
- relative viability ([21]; first compound 0.08 µM): 0.582
- relative viability ([21]; first compound 0.253 µM): 0.713
- relative viability ([21]; first compound 0.8 µM): 0.524
- relative viability ([21]; first compound 2.53 µM): 0.503
- relative viability ([21]; first compound 8 µM): 0.463
- relative viability ([22]; first compound 0.08 µM): 0.756
- relative viability ([22]; first compound 0.253 µM): 0.892
- relative viability ([22]; first compound 0.8 µM): 0.708
- relative viability ([22]; first compound 2.53 µM): 0.705
- relative viability ([22]; first compound 8 µM): 0.467
